# Assay results as given in patent US6271342A, “Sugar-modified cytostatics” (Bayer Aktiengesellschaft, priority 1995, dated 2001).
# Assays:
# [1] = system: HT 29; assay: Growth inhibition test (MTT) for cytotoxic properties; type: cell-based, human; conditions: Table 1a, glycoconjugates of batracyline
# Protocol: (§1) Growth Inhibition Test for Determination of the Cytotoxic Properties of Glycoconjugates of Batracyline and of Quinolone-a
# (§2) The human colon cell lines SW 480 and HT 29 (ATCC no. CCL 228 and HBT-38) and the mouse melanoma cell line B 16 F 10 were cultured in Roux dishes in RPMI 1640 medium with addition of 10% FCS. The cultures were then trypsinized and taken up in RPMI plus 10% FCS to a cell count of 50,000 cells/ml. 100 μl of cell suspension/well were introduced into a 96 microwell plate and incubated for 1 day at 37° C. in a CO2 incubating cabinet. A further 100 μl of RPMI medium and 1 μl of dimethyl sulphoxide with the test substances were then added. The growth was checked after day 3 and day 6. 40 μl of MTT solution (3-(4,5-dimethylthiazol-2-yl)-2,5-diphenyltetrazoline bromide) with an initial concentration of 5 mg/ml of H2 O were added to each microwave. The plate was incubated for 5 hours in a CO2 incubating cabinet at 37° C. The medium was then sucked off and 100 μl of i-propanol/well were added. After shaking for 30 minutes with 100 μl of H2 O, the extinction was measured at 540 nm with a Titertek Multiskan MCC/340 (Flow).
# (§3) The cytotoxic action of the glycoconjugates of batracyline described is shown in Table 1a as the IC50 value in each case for the SW 480 and HT 29 cell lines.
# [2] = system: SW 480; assay: as above; type: cell-based, human; conditions: Table 1a, glycoconjugates of batracyline
# Protocol: as §1, §2, §3
Substance,IC50 [1] [µM],IC50 [2] [µM]
"N-{N^α -[O-(3-O-Carbamoylmethyl-β-D-galactopyranosyl)-4-hydroxy-phenylamino- thiocarbonyl]-N^ε -[O-(3-O-carboxymethyl-β-D-galactopyranosyl)-4-hydroxy-phenylamino-th iocarbonyl]-lysyl-D-alanyl}-batracyline, sodium salt [Example 5.20]",30,50
"N-{N^α -[O-(3-O-Carboxymethyl-β-D-galactopyranosyl)-4-hydroxy-phenylamino-th iocarbonyl]-N^ε -[O-(3,4-di-O-methyl-β-D-galactopyranosyl)-4-hydroxy-phenylamino-thio carbonyl]-lysyl-D-alanyl}-batracyline [Example 5.14]",30,20
"N-{N^α -[O-(3-O-Carboxymethyl-β-D-galactopyranosyl)-4-hydroxy-phenylamino-th iocarbonyl]-N^ε -[O-(3-O-carbamoylmethyl-β-D-galactopyranosyl)-4-hydroxy-phenylamino- thiocarbonyl]-lysyl-D-alanyl}-batracyline, sodium salt [Example 5.23]",35,25
"N-{N^α -[O-(3-O-Carboxymethyl-β-D-galactopyranosyl)-4-hydroxy-phenylamino-th iocarbonyl]-lysyl-D-alanyl}-batracyline, sodium salt [Example 4.9]",30,20
N-{N^α -[O-(3-O-Methoxycarbonylmethyl-[-D-galactopyranosyl)-4-hydroxy-phenylamino -thiocarbonyl]-lysyl-D-alanyl}-batracyline [Example 4.8],40,50
N-{N^α -[O-(3-O-Methoxycarbonylmethyl-β-D-galactopyranosyl)-4-hydroxy-phenyl amino-thiocarbonyl]-N^ε -[O-(3-O-carbamoylmethyl-β-D-galactopyranosyl)-4-hydroxy-phenylamino- thiocarbonyl]-lysyl-D-alanyl}-batracyline [Example 5.22],40,30
"N-{N^α -[O-(3-O-Methoxycarbonylmethyl-β-D-galactopyranosyl)-4-hydroxy-phenyl amino-thiocarbonyl]-N^ε -[O-(3-O-carboxymethyl-β-D-galactopyranosyl)-4-hydroxy-phenylamino-th iocarbonyl]-lysyl-D-alanyl}-batracyline, sodium salt [Example 5.19]",25,35
"N-{N^α -[O-(3-O-Methoxycarbonylmethyl-β-D-galactopyranosyl)-4-hydroxyphenyla mino-thiocarbonyl]-N^ε -[O-(3,4-di-O-methyl-β-D-galactopyranosyl)-4-hydroxy-phenylamino-thio carbonyl]-lysyl-D-alanyl}-batracyline [Example 5.12]",20,20
N-{N^α -[O-(3-O-Methyl-α-D-mannopyranosyl)-4-hydroxy-phenylamino-thiocarbon yl]-lysyl-D-alanyl}-batracyline [Example 4.12],9,15
N-{N^α -[O-(3-O-Methyl-β-D-galactopyranosyl)-4-hydroxy-phenylamino-thiocarbo nyl]-lysyl-D-alanyl}-batracyline [Example 4.7],15,15
N-{N^α -[O-(3-O-Methyl-β-L-fucosyl)-4-hydroxy-phenylamino-thiocarbonyl]-lysy l-D-alanyl}-batracyline [Example 4.3],20,20
N-{N^α -[O-(3-O-Methyl-β-L-fucosyl)-4-hydroxyphenylamino-thiocarbonyl]-N. sup.ε -[4-hydroxyethylamino-2-[O-(3-O-methyl-β-L-fucosyl)-4-hydroxyphenylam ino]triazin-6-yl]]-lysyl-D-alanyl}-batracyline [Example 5.8],> 250,100
